For test [1], the target named is T1, Sentrin-specific protease 8 (Homo sapiens, UniProt Q96LD8).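 Also: luminescence read-out of SENP8 inhibition, dose-response confirmation following an ultra-high-throughput screen.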
T1 sequence (Q96LD8 whole entry): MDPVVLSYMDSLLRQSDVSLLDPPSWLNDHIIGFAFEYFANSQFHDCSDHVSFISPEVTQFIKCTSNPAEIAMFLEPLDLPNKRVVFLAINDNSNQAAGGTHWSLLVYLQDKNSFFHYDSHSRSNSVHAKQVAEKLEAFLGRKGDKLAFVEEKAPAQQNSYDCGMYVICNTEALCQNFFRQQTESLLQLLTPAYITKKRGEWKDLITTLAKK
Type of test: functional.

For test [2], the target named is T2, Sentrin-specific protease 7 (Homo sapiens, UniProt Q9BQF6).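 Also: Luminescence-based dose-response confirmation of ultra-high-throughput screening hits, measuring inhibition of SENP7.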
T2 sequence (Q9BQF6 whole entry): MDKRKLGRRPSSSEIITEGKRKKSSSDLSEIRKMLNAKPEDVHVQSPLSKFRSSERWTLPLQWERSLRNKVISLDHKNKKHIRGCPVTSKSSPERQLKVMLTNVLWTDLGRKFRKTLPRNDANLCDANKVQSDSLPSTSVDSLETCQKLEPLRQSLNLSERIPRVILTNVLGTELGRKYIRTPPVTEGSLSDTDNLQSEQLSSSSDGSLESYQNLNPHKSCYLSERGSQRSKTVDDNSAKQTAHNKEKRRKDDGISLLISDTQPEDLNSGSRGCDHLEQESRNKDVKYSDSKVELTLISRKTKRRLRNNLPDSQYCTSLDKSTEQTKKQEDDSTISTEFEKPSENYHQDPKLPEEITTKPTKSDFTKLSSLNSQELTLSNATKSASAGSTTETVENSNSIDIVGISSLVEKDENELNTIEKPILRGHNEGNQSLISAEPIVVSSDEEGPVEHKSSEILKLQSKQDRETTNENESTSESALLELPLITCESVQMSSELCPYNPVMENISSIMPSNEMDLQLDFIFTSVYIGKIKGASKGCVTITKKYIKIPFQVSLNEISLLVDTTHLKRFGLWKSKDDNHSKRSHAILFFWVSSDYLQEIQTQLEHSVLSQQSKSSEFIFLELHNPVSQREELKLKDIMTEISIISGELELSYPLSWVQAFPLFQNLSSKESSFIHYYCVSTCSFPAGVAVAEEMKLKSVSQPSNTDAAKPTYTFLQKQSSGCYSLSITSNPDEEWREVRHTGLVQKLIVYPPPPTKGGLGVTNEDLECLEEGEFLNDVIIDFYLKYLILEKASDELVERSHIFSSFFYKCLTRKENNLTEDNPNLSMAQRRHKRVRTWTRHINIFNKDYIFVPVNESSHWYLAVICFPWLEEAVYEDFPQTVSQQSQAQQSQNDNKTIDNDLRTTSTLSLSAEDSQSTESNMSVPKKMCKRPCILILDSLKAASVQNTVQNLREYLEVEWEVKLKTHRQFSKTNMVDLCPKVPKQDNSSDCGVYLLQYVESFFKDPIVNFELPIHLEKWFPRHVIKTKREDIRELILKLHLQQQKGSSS
It counts as functional.

Test [3] deals with T3, Sentrin-specific protease 6 (Homo sapiens, UniProt Q9GZR1).
T3 sequence (Q9GZR1 whole entry): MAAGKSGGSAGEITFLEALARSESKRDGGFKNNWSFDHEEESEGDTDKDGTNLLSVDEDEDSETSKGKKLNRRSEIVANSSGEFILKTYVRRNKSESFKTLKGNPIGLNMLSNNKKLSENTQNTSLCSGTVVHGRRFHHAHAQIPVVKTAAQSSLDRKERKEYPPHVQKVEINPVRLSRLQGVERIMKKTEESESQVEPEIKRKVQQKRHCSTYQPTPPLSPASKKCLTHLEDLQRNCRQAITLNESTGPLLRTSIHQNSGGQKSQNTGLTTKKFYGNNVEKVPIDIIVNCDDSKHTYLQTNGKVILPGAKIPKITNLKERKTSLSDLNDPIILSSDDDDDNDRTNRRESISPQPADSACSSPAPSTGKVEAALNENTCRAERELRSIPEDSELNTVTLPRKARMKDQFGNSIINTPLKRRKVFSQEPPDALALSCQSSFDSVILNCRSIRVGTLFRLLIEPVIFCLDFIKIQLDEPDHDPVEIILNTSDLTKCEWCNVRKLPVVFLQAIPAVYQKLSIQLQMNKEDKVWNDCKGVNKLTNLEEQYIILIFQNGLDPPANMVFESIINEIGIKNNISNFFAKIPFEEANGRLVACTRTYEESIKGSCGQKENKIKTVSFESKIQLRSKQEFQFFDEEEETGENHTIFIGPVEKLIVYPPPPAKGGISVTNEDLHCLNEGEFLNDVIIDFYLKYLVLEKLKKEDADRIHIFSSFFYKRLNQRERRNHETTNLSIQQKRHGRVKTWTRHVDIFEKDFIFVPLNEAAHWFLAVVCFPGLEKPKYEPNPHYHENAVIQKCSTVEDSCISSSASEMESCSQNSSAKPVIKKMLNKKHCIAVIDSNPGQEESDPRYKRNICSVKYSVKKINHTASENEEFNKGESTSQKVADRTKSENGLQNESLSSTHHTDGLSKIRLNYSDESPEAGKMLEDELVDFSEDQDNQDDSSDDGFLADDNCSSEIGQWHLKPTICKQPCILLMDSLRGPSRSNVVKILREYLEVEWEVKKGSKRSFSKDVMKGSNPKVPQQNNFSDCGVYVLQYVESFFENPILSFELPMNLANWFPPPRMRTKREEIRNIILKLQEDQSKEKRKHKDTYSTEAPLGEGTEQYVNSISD
Type of test: functional.

Test [4] addresses T4, Caspase-3 (Homo sapiens, UniProt P42574).
T4 sequence (P42574 whole entry): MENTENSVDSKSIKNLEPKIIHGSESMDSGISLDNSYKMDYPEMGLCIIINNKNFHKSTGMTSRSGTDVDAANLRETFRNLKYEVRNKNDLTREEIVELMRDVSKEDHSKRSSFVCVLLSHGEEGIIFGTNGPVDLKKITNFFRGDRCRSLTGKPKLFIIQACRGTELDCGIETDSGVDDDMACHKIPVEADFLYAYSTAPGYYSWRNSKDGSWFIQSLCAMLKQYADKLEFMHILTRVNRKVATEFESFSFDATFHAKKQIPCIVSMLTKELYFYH
Type of test: functional.

A short description of test [5]: NIH-3T3 fibroblast cytotoxicity, dose response, cytotoxicity control, cell-based, fluorescence, Alamar Blue, secondary assay (AID 2327).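 Also: NIH-3T3 mouse fibroblasts cultured with fluconazole at 8 µg/mL.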 Type of test: functional. (In general: Alamar Blue is a resazurin reagent that responds to reducing activity.)
The target in test [6] is T5, Protein skinhead-1 (Caenorhabditis elegans, UniProt P34707).
T5 sequence (P34707 whole entry): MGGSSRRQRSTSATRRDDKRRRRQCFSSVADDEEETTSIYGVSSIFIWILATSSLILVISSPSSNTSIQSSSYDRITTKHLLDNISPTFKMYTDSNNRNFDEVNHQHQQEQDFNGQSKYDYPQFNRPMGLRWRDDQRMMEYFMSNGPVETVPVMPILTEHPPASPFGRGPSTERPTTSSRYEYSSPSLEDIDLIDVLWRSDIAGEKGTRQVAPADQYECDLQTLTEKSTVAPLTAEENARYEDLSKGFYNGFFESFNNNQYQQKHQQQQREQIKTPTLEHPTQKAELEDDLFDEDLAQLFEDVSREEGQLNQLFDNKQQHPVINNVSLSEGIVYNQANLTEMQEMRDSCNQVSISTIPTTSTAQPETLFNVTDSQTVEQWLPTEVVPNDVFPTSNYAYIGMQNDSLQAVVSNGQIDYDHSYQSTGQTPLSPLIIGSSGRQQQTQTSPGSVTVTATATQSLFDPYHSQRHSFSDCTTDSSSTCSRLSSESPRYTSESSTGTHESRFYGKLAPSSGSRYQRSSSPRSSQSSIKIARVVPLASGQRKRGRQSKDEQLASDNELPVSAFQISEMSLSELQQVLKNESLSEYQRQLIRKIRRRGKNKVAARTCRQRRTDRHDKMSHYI
It counts as functional.

The target of test [7] is T6, Polyadenylate-binding protein 1 (Homo sapiens, UniProt P11940). Put plainly: MLLE binding blockers, Cy5 peptide tracer – biochemical, fluorescence polarization, Cy5-PAM2 peptide, secondary, miRNA deadenylation inhibitor project, dose response (AID 602260). It counts as functional. Particulars: read-out: IC50_Mean. (Polarisation of emitted light reports the rotation of a fluorescent probe.)

Test [8] addresses T6, Polyadenylate-binding protein 1. Put plainly: MLLE domain peptide-binding blockers, IC50 – biochemical, fluorescence polarization, FITC-PAM2 peptide, dose response (AID 602259). It counts as functional. Conditions: read-out: IC50_Mean.
For test [9], the system named is H4. Put plainly: Luminescence Cell-Based Dose Response HTS to Identify Activators of 5'UTR Stem-Loop Driven Prion Protein mRNA Translation in H4 Neuroglioblastoma Cells. [Related pubchem assays: 1829 (Project Summary), 1814 (Primary HTS)]. Type of test: functional. Particulars: Homo sapiens.
Test [10] is described as follows: Luminescence Cell-Based Dose Response HTS to Identify Activators of Luciferase Translation or Activity in H4 […] Cells. [Related pubchem assays: 1829 (Project Summary), 1814 (Primary HTS)]. It counts as functional.
Test [11] can be described thus: Luminescence Cell-Based Dose Confirmation HTS to Identify Activators of 5'UTR Stem-Loop Driven Alpha-Synuclein mRNA Translation in H4 Neuroglioblastoma Cells. [Related pubchem assays: 1829 (Project Summary), 1814 (Primary HTS)]. It counts as functional.
For test [12], the system named is Streptococcus. The experiment in a line: GAS UMAA2166 growth inhibition – luminescence, BacTiterGlo, counter-screen for streptokinase expression inhibitor project, dose response (AID 1915).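 Also: potency for reduction of bacterial viability or growth.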 Type of test: functional, organism-based.
Test [13] addresses Cytochrome P450 3A4 (Homo sapiens, UniProt P08684).
In test [14] the target is Cytochrome P450 2D6 (Homo sapiens, UniProt P10635).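 Also: CYP2D6 member of a cytochrome P450 panel assay.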
The target of test [15] is T7, Streptokinase A (Streptococcus pyogenes serotype M1, UniProt P10520).
T7 sequence (P10520 whole entry): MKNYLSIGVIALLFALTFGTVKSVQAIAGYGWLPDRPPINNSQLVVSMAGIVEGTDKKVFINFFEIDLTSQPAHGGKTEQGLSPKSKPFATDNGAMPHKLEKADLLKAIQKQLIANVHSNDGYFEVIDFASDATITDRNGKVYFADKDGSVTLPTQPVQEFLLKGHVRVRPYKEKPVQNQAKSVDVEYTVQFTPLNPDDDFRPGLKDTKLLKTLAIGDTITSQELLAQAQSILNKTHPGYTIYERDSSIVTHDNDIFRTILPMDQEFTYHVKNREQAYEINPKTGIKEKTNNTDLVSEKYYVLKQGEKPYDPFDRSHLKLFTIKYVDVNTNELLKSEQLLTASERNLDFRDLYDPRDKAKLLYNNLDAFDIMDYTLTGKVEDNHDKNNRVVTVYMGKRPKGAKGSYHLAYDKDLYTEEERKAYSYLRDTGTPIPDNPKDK
Put plainly: viability-normalized secreted streptokinase activity reduction – plasminogen activation absorbance, OD405, dose response (AID 1914).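 Also: secreted streptokinase activity via plasminogen activation per viability signal from cell pellet.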 It counts as functional, Streptococcus pyogenes M1 GAS.

In test [16] the test system is Streptococcus sp. 'group A'. The experiment in a line: Streptococcus pyogenes SK(-)GAS viability under kanamycin – luminescence, BacTiterGlo, confirmation, counter-screen for streptokinase expression inhibitor project, dose response (AID 1900). It counts as functional, organism-based. (In general: A counterscreen serves to expose hits that act by an unwanted route or on another target.)

Active and inactive are the calls of the source. Bounds are passed on as bounds.

T6 sequence (P11940 whole entry): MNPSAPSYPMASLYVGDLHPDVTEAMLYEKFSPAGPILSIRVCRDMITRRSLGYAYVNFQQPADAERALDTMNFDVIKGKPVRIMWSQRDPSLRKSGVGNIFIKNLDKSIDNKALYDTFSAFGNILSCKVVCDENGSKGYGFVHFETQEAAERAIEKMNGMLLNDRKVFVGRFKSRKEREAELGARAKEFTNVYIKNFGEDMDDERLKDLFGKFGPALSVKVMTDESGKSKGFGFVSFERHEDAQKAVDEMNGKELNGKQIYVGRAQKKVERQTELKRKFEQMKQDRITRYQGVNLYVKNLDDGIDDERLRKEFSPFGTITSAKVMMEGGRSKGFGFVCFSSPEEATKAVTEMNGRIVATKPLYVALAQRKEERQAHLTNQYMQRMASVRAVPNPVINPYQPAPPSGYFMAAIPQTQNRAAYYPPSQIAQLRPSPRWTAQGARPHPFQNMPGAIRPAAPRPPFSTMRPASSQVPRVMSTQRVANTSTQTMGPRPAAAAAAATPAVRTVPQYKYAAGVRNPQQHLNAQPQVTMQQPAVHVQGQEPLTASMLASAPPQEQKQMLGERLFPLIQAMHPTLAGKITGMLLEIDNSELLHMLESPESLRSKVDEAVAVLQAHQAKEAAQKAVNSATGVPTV
Sequence of Cytochrome P450 2D6 (P10635 whole entry): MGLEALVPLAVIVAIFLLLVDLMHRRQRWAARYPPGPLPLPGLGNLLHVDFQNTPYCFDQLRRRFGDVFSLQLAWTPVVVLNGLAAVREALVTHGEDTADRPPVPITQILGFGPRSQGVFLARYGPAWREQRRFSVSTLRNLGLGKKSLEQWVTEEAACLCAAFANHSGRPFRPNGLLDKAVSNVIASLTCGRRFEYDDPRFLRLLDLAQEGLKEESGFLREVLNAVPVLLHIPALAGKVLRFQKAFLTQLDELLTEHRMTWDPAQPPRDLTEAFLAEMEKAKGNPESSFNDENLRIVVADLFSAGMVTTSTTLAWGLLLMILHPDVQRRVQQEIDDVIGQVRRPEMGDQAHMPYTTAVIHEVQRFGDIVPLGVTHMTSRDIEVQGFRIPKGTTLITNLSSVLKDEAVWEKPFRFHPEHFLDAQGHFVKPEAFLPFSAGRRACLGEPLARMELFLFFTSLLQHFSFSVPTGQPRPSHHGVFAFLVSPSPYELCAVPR
Sequence of Cytochrome P450 3A4 (P08684 whole entry): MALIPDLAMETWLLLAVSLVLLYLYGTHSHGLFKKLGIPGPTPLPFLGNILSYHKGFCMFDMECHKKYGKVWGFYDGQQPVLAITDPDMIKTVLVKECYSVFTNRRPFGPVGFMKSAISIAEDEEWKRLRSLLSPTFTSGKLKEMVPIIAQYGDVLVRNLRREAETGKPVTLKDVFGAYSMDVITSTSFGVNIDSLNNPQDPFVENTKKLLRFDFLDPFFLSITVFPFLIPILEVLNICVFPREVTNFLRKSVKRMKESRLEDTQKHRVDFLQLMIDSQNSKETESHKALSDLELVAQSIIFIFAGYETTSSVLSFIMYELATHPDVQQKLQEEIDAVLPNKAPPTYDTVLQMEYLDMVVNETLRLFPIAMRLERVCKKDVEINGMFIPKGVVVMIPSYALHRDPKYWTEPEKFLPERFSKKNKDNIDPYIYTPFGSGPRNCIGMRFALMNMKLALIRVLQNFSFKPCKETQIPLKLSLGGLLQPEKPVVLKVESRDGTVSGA

As for `O=C(Nc1nc(=O)c2ccccc2s1)c1ccccc1`, the IC50 in [1] is > 100 µM (inactive); in test [2], 6.3 µM (active); in [3], 60.6 µM (active); in test [4] it was 4.38 µM (active). In addition, the EC50 (commonly the concentration that produces a half-maximal response) in test [5] was 63.1 µM (active).
Regarding `c1ccc2nc(-c3ccc(-n4ccnc4)cc3)ccc2c1`, the IC50 in [1] is 13.1 µM (active); in test [2] it was 5.47 µM (active); in test [3], 10.8 µM (active); in [4], 8.83 µM (active); in test [6] it was 7.87 µM (active).
With `CCN(CC)S(=O)(=O)c1ccc2c(c1)nc(SCn1nnc3ccccc3c1=O)n2CC`, the IC50 in [7] and in test [8] was > 66 µM (inactive) throughout.
Consider `Cc1nc(NC(=S)NC(=O)c2ccccc2)sc1C(=O)N(C)C`, for which the IC50 in test [7] and in [8] was > 66 µM (inactive) throughout.
With `O=C(NN=Cc1sc(=O)[n-]c1-[n+]1ccccc1)c1ccccc1O`, the IC50 in test [7] is > 66 µM (inactive); in test [8] it was 35.2 µM (inactive).
Consider `COc1cccc(C(=O)OCC(=O)c2ccc(Br)s2)c1`, for which the IC50 is 21.6 µM (active) in [1], 10.3 µM (active) in [2], 14.6 µM (active) in test [3] and 26.8 µM (active) in test [4].
For the compound `CCSc1nsc(NC(=O)Nc2ccccc2F)n1`, the IC50 in [1] was 6.84 µM (active); in [2] it was 5.95 µM (active); in test [3] it was > 100 µM (inactive); in test [4], 29 µM (active). In addition, the EC50 in [9] is 16.1 µM (inconclusive); in test [10], 20.4 µM (active); in [11] it was 0.283 µM (active).
With `N=C1/C(=C/c2cccs2)C(=O)N=C2SN=C(SCc3ccccc3)N12`, the figures for the EC50 in [12], in test [15] and in [16] were 30 µM (active), 5.78 µM (active) and 3.65 µM (active), respectively. The concentration at half-maximal activity (AC50) (commonly the concentration giving half of the maximal activity seen) in test [13] is 14.1 µM (inconclusive); in [14], 25.1 µM (inconclusive). Moreover, the IC50 in test [1] is 32.6 µM (active); in test [2] it was 27.7 µM (active); in test [3], 11.1 µM (active); in test [4] it was 50.3 µM (active).
For `O=C(Nc1ccc(Cl)cc1)Nc1nccs1`, the AC50 in test [14] was 31.6 µM (inconclusive). Besides, the IC50 in test [1] was 15.5 µM (active); in test [2], 7.33 µM (active); in test [3], 14.6 µM (active); in test [4], 21.7 µM (active).
Regarding `CCCc1nc2ccc(Cl)cn2c1Cc1ccsc1`, the IC50 in test [7] was 51.2 µM (inactive); in test [8], 59.3 µM (inactive).
On to `Nc1[nH]n(-c2ccccc2)c(=O)c1N=Nc1ccccc1`, for which the IC50 is > 100 µM (inactive) in test [1], 4.47 µM (active) in test [2], > 100 µM (inactive) in test [3] and 20.2 µM (active) in test [4].

The values above are taken from ChEMBL document CHEMBL1201862, “PubChem BioAssay data set” (2004).
